Numbers after ± are expanded uncertainties.
Tests used:
[1] = Crystal; DTA
[2] = Molar enthalpy of transition or fusion; settings: Crystal; DSC

Normal melting temperature [1]	Molar enthalpy of transition or fusion [2]	Compound
95.98 ± 0.53 °C	5 ± 0.148 kcal/mol	O=C(O)CCCC(=O)O [1,5-pentanedioic acid]
153.16 ± 0.53 °C	8.46 ± 0.237 kcal/mol	O=C(O)CCCCC(=O)O [1,6-hexanedioic acid]
122.93 ± 0.53 °C	4.31 ± 0.131 kcal/mol	O=C(O)c1ccccc1 [benzoic acid]

Reference: the NIST ThermoML archive (doi:10.1021/je100749m)
